Activity calls are given as the source filed them. No cut-off for these calls is given here.
Tests used:
A549 = assay: Antitumor activity in human A549 cells; format: functional, cell-based
P388 = assay: Antitumor activity in mouse P388 cells; format: functional, cell-based

| Compound | Activity (A549) | Activity (P388) |
| --- | --- | --- |
| COc1ccc(C[C@]2(O)COc3cc(OC)cc(O[C@@H]4O[C@H](CO[C@@H]5O[C@@H](C)[C@H](O)[C@@H](O)[C@H]5O)[C@@H](O)[C@H](O)[C@H]4O)c3C2=O)cc1 | inactive | inactive |
| COc1ccc(C[C@]2(O)COc3cc(OC)cc(O[C@@H]4O[C@H](CO)[C@@H](O)[C@H](O)[C@H]4O)c3C2=O)cc1 | inactive | inactive |
| COc1ccc(C[C@]2(O)COc3cc(OC)cc(O[C@@H]4O[C@H](CO)[C@@H](O)[C@H](O)[C@H]4O[C@@H]4O[C@@H](C)[C@H](O)[C@@H](O)[C@H]4O)c3C2=O)cc1 | inactive | inactive |
